“And” between values parts separate entries of the source, which are not always exact repeats. Identical values can stand only once.
Tests used:
[1] = biological target: T1, immobilized human sAC protein (Homo sapiens, UniProt Q96PN6); assay: Surface plasmon resonance binding kinetics;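 further: Reference-channel response subtracted from active-channel response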; settings: Fig. 1f
T1 construct: recombinant purified His-tagged sACt protein (50 μg/ml)
T1 sequence (Q96PN6 1-469 limits assumed): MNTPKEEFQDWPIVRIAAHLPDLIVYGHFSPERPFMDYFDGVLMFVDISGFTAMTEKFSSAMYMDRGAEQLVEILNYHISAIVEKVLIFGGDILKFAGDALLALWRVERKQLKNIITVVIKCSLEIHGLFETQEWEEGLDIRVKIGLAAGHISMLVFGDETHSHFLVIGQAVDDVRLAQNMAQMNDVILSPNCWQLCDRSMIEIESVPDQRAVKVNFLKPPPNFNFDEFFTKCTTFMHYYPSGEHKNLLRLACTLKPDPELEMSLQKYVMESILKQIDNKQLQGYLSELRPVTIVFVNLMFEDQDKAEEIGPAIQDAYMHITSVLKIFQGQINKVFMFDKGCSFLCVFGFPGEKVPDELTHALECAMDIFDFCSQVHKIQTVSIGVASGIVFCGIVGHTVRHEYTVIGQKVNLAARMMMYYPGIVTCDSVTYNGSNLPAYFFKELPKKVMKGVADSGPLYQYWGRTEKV
Procedure: Association and dissociation rate constants of sAC inhibitors were obtained with a Biacore 8K instrument (Cytiva) using a parallel kinetics protocol. Series S Sensor NTA chips (Cytiva) were prepared by applying recombinant purified His-tagged sACt protein (50 μg/ml) in PBS-P+ buffer (1 mM KH2PO4, 150 mM NaCl, 6 mM Na2HPO4, 0.05% (w/v) P20 Surfactant). The His-tagged sAC protein was captured via Ni^2+-His-tag chelation and covalently immobilized by amine coupling with a 1:1 mixture of 1-ethyl-3-(3-dimethylaminopropyl) carbodiimide and N-hydroxysuccinimide (active channels). After coupling, remaining reactive groups on the chip’s surface were blocked with 1 M ethanolamine followed by 350 mM EDTA to wash away any free Ni^2+. Following preparation, TBS-P+ running buffer (50 mM Tris, 150 mM NaCl, and 0.05% P20 Surfactant) supplemented with 1% DMSO was flowed over the surface of the chip until a stable baseline was obtained. For each sAC inhibitor, which were dissolved in DMSO and diluted in running buffer, increasing concentrations were injected into parallel channels for 120 s at a flow rate of 50 µl/min followed by running buffer for 600 s to allow for dissociation. All experiments included reference channels; i.e., inhibitor run over parallel channels without immobilized protein. […] Curves were fitted, and kon, KD, and koff values were determined using the Biacore 8K Insight Evaluation Software Version 2.0 (Cytiva) and a 1:1 binding kinetics model.

human sperm [2] = assay: Flagellar beat frequency of tethered human sperm; type: cell-based
Procedure: (§1) An inverted dark-field video microscope (IX73; Olympus) with a 10 x objective (mouse sperm) or a 20 x objective (human sperm) (UPLSAPO, NA 0.8; Olympus) was combined with a high-speed camera (ORCA Fusion; Hamamatsu). Dark-field videos were recorded with a frame rate of 200 Hz. The temperature of the heated stage was set to 37 °C (stage top incubator WSKMX; TOKAI HIT). The images were preprocessed with the ImageJ plugin SpermQ Preparator (Gaussian blur with sigma 0.5 px; subtract background method with radius 5 px) and analyzed using the ImageJ plugin SpermQ[57]. The beat frequency was determined from the highest peak in the frequency spectrum of the curvature time course, obtained by Fast Fourier Transform.

[3] = biological target: T2, purified recombinant human sAC protein (Homo sapiens, UniProt Q96PN6); assay: In vitro adenylyl cyclase activity assay (two-column method);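 on cyclase activity (%): 100% equals DMSO vehicle-treated control activity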; type: biochemical; set-up: cyclase activity: unit not given here; settings: for cyclase activity (%): Fig. 1c normalized replicates; for cyclase activity: Fig. 1c replicates
T2 construct: human sACt protein was incubated
T2 sequence (Q96PN6 1-469 limits assumed): T1 sequence (Q96PN6 1-469 limits assumed)
Procedure: All in vitro adenylyl cyclase activity assays were performed via the “two-column” method measuring the conversion of [α-^32P] ATP into [^32P] cAMP[54], as previously described. Briefly, human sACt protein was incubated in buffer containing 50 mM Tris-HCl, pH 7.5, 4 mM MgCl2, 2 mM CaCl2, 1 mM ATP, 3 mM DTT, 40 mM NaHCO3 in the presence of the indicated concentrations of different sAC inhibitors or vehicle (1% DMSO).

human sperm [4] = assay: Acrosome reaction assay, human sperm, progesterone-evoked; type: cell-based
Procedure: Acrosome reaction was induced by incubating mouse sperm with 50 mouse solubilized zonae pellucidae for 15 min at 37 °C. Human sperm were incubated with 10 μM progesterone for 30 min at 37 °C. […] Samples were air-dried on microscope slides and fixed for 30 minutes in 100% ethanol at room temperature (RT). For acrosome staining, mouse and human sperm were incubated for 30 min in the dark with 5 μg/ml PNA-FITC or 5 μg/ml PSA-FITC, respectively, and counterstained with 2 μg/ml DAPI. After curing, slides were analyzed using a Zeiss LSM 880 Laser Scanning Confocal Microscope; images were captured with two photomultiplier and one Gallium Arsenide Phosphide detector using ZEN Imaging software. For each condition, at least 600 cells were analyzed using ImageJ 1.52.

mouse sperm = assay: Flagellar beat frequency of tethered mouse sperm; type: cell-based
Procedure: as §1

[5] = concentration (uM) -0.52288 [sic]
[6] = concentration (uM) -1.95424 [sic]
[7] = concentration (uM) -2.43136 [sic]
[8] = concentration (uM) -2.90848 [sic]
[9] = concentration (uM) -3.38561 [sic]
[10] = concentration (uM) -3.86274 [sic]
[11] = concentration (uM) -4.33985 [sic]
[12] = concentration (uM) -4.81696 [sic]
[13] = concentration (uM) printed -1.47712

Compound Nc1nc(Cl)cc(-c2nn(C(F)F)cc2Cc2ccccc2OCCN2CCOC[C@@H]2CO)n1 [TDI-11861] has an SPR sensorgram response ([1]; 4 nM, Time 1.8 s) of 0.8425, an SPR sensorgram response ([1]; 4 nM, Time 1.9 s) of 0.8424 and an SPR sensorgram response ([1]; 4 nM, Time 2 s) of 0.8404. For the same compound, the SPR sensorgram response ([1]; 12.3 nM, Time 1.8 s) was 0.7083, the SPR sensorgram response ([1]; 12.3 nM, Time 1.9 s) was 0.7083 and the SPR sensorgram response ([1]; 12.3 nM, Time 2 s) was 0.7083. It also gave an SPR sensorgram response ([1]; 37 nM, Time 1.8 s) of 0.4389, an SPR sensorgram response ([1]; 37 nM, Time 1.9 s) of 0.4389 and an SPR sensorgram response ([1]; 37 nM, Time 2 s) of 0.4389. It also gave an SPR sensorgram response ([1]; 111 nM, Time 1.8 s) of 1.6715, an SPR sensorgram response ([1]; 111 nM, Time 1.9 s) of 1.6715 and an SPR sensorgram response ([1]; 111 nM, Time 2 s) of 1.5453. It also gave an SPR sensorgram response ([1]; 333 nM, Time 1.8 s) of 3.2073, an SPR sensorgram response ([1]; 333 nM, Time 1.9 s) of 3.4899 and an SPR sensorgram response ([1]; 333 nM, Time 2 s) of 3.8103. The “Beat frequency, Basal” value (human sperm [2]; distal 5 µm of flagellum, 5 μM TDI-10229 or 10 nM TDI-11861, mean ± SEM) was 11.4 ± 1.3 Hz, the “Beat frequency, + HCO3-” value (human sperm [2]; distal 5 µm, 25 mM NaHCO3, 5 μM TDI-10229 or 10 nM TDI-11861, mean ± SEM) was 11.0 ± 0.8 Hz and the “cyclase activity (%)” value [3, 5] was 0%. For the same compound, the “cyclase activity (%)” value ([3]; concentration (uM) -1 [sic]) was 1.344% and 1.8728% and 2.004% and 2.905% and 3.587% and 4.384%, the “cyclase activity (%)” value [3, 6] was 19.6796% and 15.3927% and 17.558% and 30.5194% and 31.8303% and 33.3011% and the “cyclase activity (%)” value [3, 7] was 38.6741% and 36.8021% and 41.7291% and 63.9723% and 46.6554% and 57.8417%. The “cyclase activity (%)” value [3, 8] was 59.9199% and 65.2563% and 61.8852% and 88.985% and 69.2179% and 73.6242%, the “cyclase activity (%)” value [3, 9] was 101.82% and 89.3095% and 88.0533% and 91.9223% and 87.6768% and 92.6716% and the “cyclase activity (%)” value [3, 10] was 102.032% and 91.5857% and 92.0528% and 108.947% and 93.3751% and 103.72%. For the same compound, the “cyclase activity (%)” value [3, 11] was 103.469% and 99.6453% and 98.4201% and 105.132% and 92.0891% and 95.6319%, the “cyclase activity (%)” value [3, 12] was 100% and the “cyclase activity (%)” value [3, 13] was 6.461% and 6.308% and 6.301% and 11.7225% and 11.6858% and 13.5507%. For the same compound, the cyclase activity [3, 5] was 2069 and 1544 and 1561.8 and 2385.2 and 2164.1 and 1653.5, the cyclase activity ([3]; concentration (uM) -1 [sic]) was 2867.6 and 2750.4 and 2889.4 and 3159.9 and 3272.8 and 3037.2 and the cyclase activity [3, 6] was 13763.6 and 11459.5 and 13193 and 10525 and 12002.6 and 12163.6. For the same compound, the cyclase activity [3, 7] was 25051.1 and 25250.8 and 29205 and 19447.2 and 16584.9 and 19908.8, the cyclase activity [3, 8] was 37676.4 and 43580.1 and 42557.3 and 26118.3 and 23558.8 and 24889.9 and the cyclase activity [3, 9] was 62575.6 and 59074.4 and 59892.2 and 26901.7 and 29264.3 and 30901.4. The cyclase activity [3, 10] was 62701.3 and 60540.7 and 62541.6 and 31442.4 and 31025.6 and 34388.3, the cyclase activity [3, 11] was 63555.2 and 65732.4 and 66759.6 and 30424.8 and 30628.1 and 31835.7 and the cyclase activity [3, 12] was 61494 and 65960.9 and 67806.2 and 29056.1 and 33073.3 and 33214.3. The cyclase activity [3, 13] was 5908.5 and 5607.6 and 5735.6 and 5511.7 and 5776.1 and 5930.2, the “toxicity to sperm (rescue of acrosome response by cAMP/IBMX)” value (human sperm [4]) was “not toxic to sperm” and the “Acrosome reacted (%), Prog” value (human sperm [4]; Fig. 2h replicates, 10 μM progesterone, 5 μM TDI-10229 or 10 nM TDI-11861) was 11.2728% and 11.1787% and 11.2041% and 9.266% and 10.4762% and 13.6206%. The “Acrosome reacted (%), Prog + db-cAMP/IBMX” value (human sperm [4]; Fig. 2h replicates, 10 μM progesterone, 5 mM db-cAMP/500 μM IBMX, 5 μM TDI-10229 or 10 nM TDI-11861) was 28.3207% and 19.1712% and 18.125% and 29.0658% and 24.3412% and 18.4673%, the “Acrosome reacted (%), basal + db-cAMP/IBMX” value (human sperm [4]; Fig. 2h replicates, 5 mM db-cAMP/500 μM IBMX, 5 μM TDI-10229 or 10 nM TDI-11861) was 16.1667% and 6.667% and 10.5% and 10.6667% and 19.1045% and 11.7728% and the “Acrosome reacted (%), basal” value (human sperm [4]; Fig. 2h replicates, 180 min capacitating media, 5 μM TDI-10229 or 10 nM TDI-11861) was 12.5473% and 10% and 15.2336% and 15.1667% and 10.3704% and 13.6209%. For the same compound, the “Beat frequency, Basal” value (mouse sperm; distal 10 μm of flagellum, 5 μM TDI-10229 or 10 nM TDI-11861, mean ± SEM) was 14.8 ± 1.0 Hz and the “Beat frequency, + HCO3-” value (mouse sperm; distal 10 μm, 25 mM NaHCO3, 5 μM TDI-10229 or 10 nM TDI-11861, mean ± SEM) was 22.7 ± 1.6 Hz.

Source: article PMC9929232, “On-demand male contraception via acute inhibition of soluble adenylyl cyclase” (Nature Communications, 2023)
